# According to PMC8831244 (Nature methods, 2022):
# B1: OX2R: wild-type human orexin type-2 receptor (protein, UniProt O43614 1-444, looked up)
# Orexin receptor type 2: MSGTKLEDSPPCRNWSSASELNETQEPFLNPTDYDDEEFLRYLWREYLHPKEYEWVLIAGYIIVFVVALIGNVLVCVAVWKNHHMRTVTNYFIVNLSLADVLVTITCLPATLVVDITETWFFGQSLCKVIPYLQTVSVSVSVLTLSCIALDRWYAICHPLMFKSTAKRARNSIVIIWIVSCIIMIPQAIVMECSTVFPGLANKTTLFTVCDERWGGEIYPKMYHICFFLVTYMAPLCLMVLAYLQIFRKLWCRQIPGTSSVVQRKWKPLQPVSQPRGPGQPTKSRMSAVAAEIKQIRARRKTARMLMIVLLVFAICYLPISILNVLKRVFGMFAHTEDRETVYAWFTFSHWLVYANSAANPIIYNFLSGKFREEFKAAFSCCCLGVHHRQEDRLTRGRTSTESRKSLTTQISNFDNISKLSEQVVLTSISTLPAANGAGPLQNW
# Key:
# OxLight1 [1] = biological target: T1, OxLight1 (Homo sapiens, UniProt O43614, DEL254-292/I293E/K294R/L160H/M161K/Q254E); assay type: cell-based; conditions: Almorexant 10 μM after OXB 5 μM
# T1 sequence (O43614 with tags, fused parts or gaps L160H/M161K/DEL254-292/I293E/K294R): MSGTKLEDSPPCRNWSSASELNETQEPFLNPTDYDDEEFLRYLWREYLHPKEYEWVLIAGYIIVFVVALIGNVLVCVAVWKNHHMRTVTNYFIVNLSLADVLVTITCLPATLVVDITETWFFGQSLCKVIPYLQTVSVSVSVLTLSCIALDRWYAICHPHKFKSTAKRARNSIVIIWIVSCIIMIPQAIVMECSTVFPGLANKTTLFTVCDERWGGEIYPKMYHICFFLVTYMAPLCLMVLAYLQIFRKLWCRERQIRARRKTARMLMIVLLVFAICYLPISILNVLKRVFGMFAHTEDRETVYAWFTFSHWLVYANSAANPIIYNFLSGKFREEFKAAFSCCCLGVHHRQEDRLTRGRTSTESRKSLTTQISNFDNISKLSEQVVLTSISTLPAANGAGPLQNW
# [2] = system: OxLight1 in basal forebrain or LH; assay: Photometry with polysomnographic recordings across sleep-wake states; assay type: in vivo, mouse; conditions: 50 mg/kg, per os, mice
# OxLight1 [3] = assay: Photometry during anesthesia; assay type: in vivo, mouse; conditions: isoflurane 2% 10 min or medetomidine 0.5 mg/kg i.p., mice
# OxLight1 [4] = biological target: T1, OxLight1; assay type: cell-based; conditions: 10 μM, HEK293T
# OxLight1 [5] = biological target: T1, OxLight1; assay type: cell-based; conditions: OxLight1, 10 μM orexin, HEK cells, mean ± SEM
# OxLight1 [6] = biological target: T1, OxLight1; assay type: cell-based; conditions: 10 μM, HEK293T, 37°C, mono-exponential fit, n = 8 dishes, mean ± SEM
# OX2R [7] = assay: Intracellular calcium signaling, OX2R-expressing HEK293T cells; assay type: cell-based, human; conditions: orexin-A and orexin-B
# OX2R [8] = assay: Mini-G protein recruitment to OX2R, TIRF microscopy; assay type: cell-based, human; conditions: OXB 50 nM
# OX2R [9] = assay: beta-Arrestin-2 recruitment to OX2R, TIRF microscopy; assay type: cell-based, human; conditions: agonist stimulation 15 min
molecule,measurement,setting,value
CNC(=O)[C@@H](c1ccccc1)N1CCc2cc(OC)c(OC)cc2[C@@H]1CCc1ccc(C(F)(F)F)cc1 [Almorexant],reversal of fluorescence response,OxLight1 [1],fully reversed
Cc1ccc(-n2nccn2)c(C(=O)N2CCN(c3nc4cc(Cl)ccc4o3)CC[C@H]2C)c1 [Suvorexant],effect on OxLight1 response across sleep-wake states,[2],significantly reduced the response of OxLight1
FC(F)OC(Cl)C(F)(F)F (stereo not shown) [isoflurane],effect on OxLight1 signal,OxLight1 [3],significant decrease in OxLight1 signal
Cc1cccc(C(C)c2cnc[nH]2)c1C (stereo not shown) [medetomidine],effect on OxLight1 signal,OxLight1 [3],no change
Dynorphin,OxLight1 response to neuropeptide,OxLight1 [4],lack of response
orexin-B: endogenous orexin neuropeptide,"ΔF/F0, maximal response",OxLight1 [5],859 ± 27%
same,activation time constant τ,OxLight1 [6],618 ± 98 ms
same,intracellular Ca2+ response,OX2R [7],robust intracellular Ca^2+ responses
B1,mini-G recruitment,OX2R [8],selective and strong recruitment of mini-Gq
same,β-arrestin-2 engagement,OX2R [9],robust β-arrestin-2 engagement
